# Measured values as given in US10640507B2, “PBD antibacterial agents” (KING'S COLLEGE LONDON, priority 2015, dated 2020).
# Read-outs that look alike come from different tables or passages of the source.
# Tests used:
# Type in all cases: cell-based
# WI38 (Healthy cell line) = assay: MTT cytotoxicity assay; details: Homo sapiens, read-out: IC50 WI38 (Healthy cell line)
# Protocol: (§1) Two immortalised human cell lines, HeLa and WI38 were used for cytotoxicity screening of the compounds. HeLa is a human cervical cancer cell line and WI38 is a normal healthy cell line. The cell lines were obtained from the American Type Culture Collection. The cell-lines were maintained in monolayer culture in 75 cm2 flasks (TPP, Switzerland) under a humidified 5% CO2 atmosphere at 37° C. The HeLa cell line was maintained in Dulbecco's Modified Eagles Media (DMEM; Invitrogen) supplemented with foetal bovine serum (10% v/v; Invitrogen), L-glutamine (2 mM; Invitrogen), non-essential amino acids (1×; Invitrogen) and Penicillin-Streptomycin (1% v/v, Invitrogen). For WI38, Eagle's Minimum Essential Medium, and Penicillin-Streptomycin (1% v/v, Invitrogen) and foetal bovine serum (10%, nvitrogen) was used. For passaging, cells were washed with phosphate buffered saline [PBS] (GIBCO 14040, Invitrogen, UK), incubated with trypsine (GIBCO 25300, Invitrogen, UK), and re-seeded into fresh medium. For seeding, cells were counted using a Neubauer haemocytometer (Assistant, Germany) by microscopy (Nikon, USA) on a non-adherent suspension of cells that were washed in PBS, trypsinised, centrifuged at 8° C. at 8000 rpm for 5 min and re-suspended in fresh medium.
# (§2) The cells were grown in normal cell culture conditions at 37° C. under a 5% CO2 humidified atmosphere using appropriate medium. The cell count was adjusted to 10^5 cells/ml/ and 20,000 cells were added per well. The cells were incubated for 24 hours and 1 μl of the appropriate inhibitor concentrations were to the wells in triplicates. After 24 h of continuous exposure to each compound, the cytotoxicity was determined using the MIT (3-(4,5-Dimethylthiazol-2-yl)-2,5-diphenyltetrazolium bromide) (Lancaster Synthesis Ltd, UK) colorimetric assay. Absorbance was quantified by spectrophotometry at λ=570 nm (Envision Plate Reader, PerkinElmer, USA). IC50 values were calculated by a dose-response analysis using the Prism Graphpad Prism® software. The cytotoxicity results are shown below in Table 12.
# [1] = test system: HeLa (Cervical cancer cell line); assay: MTT cytotoxicity assay; details: Homo sapiens, read-out: IC50 HeLa (Cervical cancer cell line)
# Protocol: as §1, §2
# [2] = test system: methicillin sensitive S. aureus ATTC 9144 (NCTC 6571); assay: General MIC protocol, Gram positive panel; details: Staphylococcus aureus, MSSA / NCTC 6571; MSSA 9144
# Protocol: (§3) General Minimum Inhibitory Concentration (MIC) Protocol
# (§4) 1. Grow up cultures of bacterial strains to be tested overnight.
# (§5) 2. Dilute down overnight cultures to concentration of 1×10^6 bacteria/ml (OD0.01) in Tryptic soy broth (TSB).
# (§6) 3. Add 100 μl of TSB media to column 2-column 12 in 96 well plate (keeping column 1 clear).
# (§7) 4. Make up compound to a concentration of 64 μg/ml in water (or alternatively to twice the chosen maximum concentration to be tested).
# (§8) 5. Add 100 μl of antibiotic solution to the 1st and 2nd columns.
# (§9) 6. Using a multichannel pipette take 100 μl from the 2nd column wells and pipette into 3rd column wells and repeat down the 96 well plate (remembering to include controls i.e. uninfected media and media with no antibiotic).
# (§10) 7. To each well (except uninfected control row H) add 100 μl of bacterially infected media at a concentration of 1×10^6/ml.
# (§11) 8. This dilutes down the concentration of the antibiotic by half (top dose is therefore 32 μg/ml in column 1) and also gives you a starting bacterial concentration of 5×10^5/ml.
# (§12) 9. Wrap plate with parafilm to prevent evaporation.
# (§13) 10. Leave at desired temperature (37° C. unless specified elsewhere) for 20 hours.
# (§14) 11. Next day check plates for growth and measure optical density (i.e. absorbance) at a wavelength of 600 nm (OD600).
# (§15) An example of such a plate is shown in FIG. 1 where column A represents wells that receive the top dose 100 μl; column B represents wells that receive the top dose 100 μl+100 μl TSB; and column C represents wells that receive 100 μl TSB. Row H which is marked by a box labelled D represents a blank where the cells receive no bacteria.
# [3] = test system: E. faecalis VRE NCTC 12201; assay: General MIC protocol, Gram positive panel
# Protocol: as §3, §4, §5, §6, §7, §8, §9, §10, §11, §12, §13, §14, §15
# EMRSA-15 = assay: General MIC protocol, Gram positive panel
# Protocol: as §3, §4, §5, §6, §7, §8, §9, §10, §11, §12, §13, §14, §15
# [4] = test system: E. faecium VRE NCTC 12204; assay: General MIC protocol, Gram positive panel
# Protocol: as §3, §4, §5, §6, §7, §8, §9, §10, §11, §12, §13, §14, §15
# E. faecalis VSE NCTC 775 = assay: General MIC protocol, Gram positive panel; details: Enterococcus faecalis, NCTC775; VSE 775
# Protocol: as §3, §4, §5, §6, §7, §8, §9, §10, §11, §12, §13, §14, §15
# EMRSA-16 = assay: General MIC protocol, Gram positive panel
# Protocol: as §3, §4, §5, §6, §7, §8, §9, §10, §11, §12, §13, §14, §15
# A. baumannii NCTC 17978 = assay: General MIC protocol, Gram negative; details: Acinetobacter baumannii, NCTC17978
# Protocol: as §3, §4, §5, §6, §7, §8, §9, §10, §11, §12, §13, §14, §15
# P. aeruginosa PA01 = assay: General MIC protocol, Gram negative; details: Pseudomonas aeruginosa, PA01, PA01
# Protocol: as §3, §4, §5, §6, §7, §8, §9, §10, §11, §12, §13, §14, §15
# A. baumannii AYE = assay: General MIC protocol, Gram negative; details: Acinetobacter baumannii
# Protocol: as §3, §4, §5, §6, §7, §8, §9, §10, §11, §12, §13, §14, §15
# K. pneumonia M6 = assay: General MIC protocol, Gram negative; details: Klebsiella pneumoniae; KP-M6
# Protocol: as §3, §4, §5, §6, §7, §8, §9, §10, §11, §12, §13, §14, §15
# K. pneumonia NCTC 13368 = assay: General MIC protocol, Gram negative; details: Klebsiella pneumoniae, NCTC13368
# Protocol: as §3, §4, §5, §6, §7, §8, §9, §10, §11, §12, §13, §14, §15
# P. aeruginosa NCTC 13437 = assay: General MIC protocol, Gram negative; details: Pseudomonas aeruginosa, NCTC13437
# Protocol: as §3, §4, §5, §6, §7, §8, §9, §10, §11, §12, §13, §14, §15
# [5] = WI-38, MTT, 24 h continuous exposure, highest concentration tested 20 μM
SMILES,"IC50 (WI38 (Healthy cell line); WI-38, 24 h)",IC50 ([1]; 24 h),MIC [2],MIC [3],MIC (EMRSA-15),MIC [4],MIC (E. faecalis VSE NCTC 775),MIC (EMRSA-16),MIC (A. baumannii NCTC 17978),MIC (P. aeruginosa PA01),MIC (A. baumannii AYE),MIC (K. pneumonia M6),MIC (K. pneumonia NCTC 13368),MIC (P. aeruginosa NCTC 13437),IC50 (WI38 (Healthy cell line); [5]),"IC50 ([1]; MTT, 24 h continuous exposure)"
"COc1cc2c(cc1OCCCC(=O)Nc1cc(C(=O)Nc3ccc4oc(C(=O)N5CCOCC5)cc4c3)n(C)c1)N=C[C@@H]1CCCN1C2=O [PP-A147, (S)-4-(4-((7-methoxy-5-oxo-2,3,5,11a-tetrahydro-1H-benzo[e]pyrrolo[1,2-a][1,4]diazepin-8-yl)oxy)butanamido)-1-methyl-N-(2-(morpholine-4-carbonyl)benzofuran-5-yl)-1H-pyrrole-2-carboxamide]",> 20 µM,> 20 µM,< 0.125 µg/mL,< 0.125 µg/mL,< 0.125 µg/mL,< 0.125 µg/mL,< 0.125 µg/mL,0.25 µg/mL,8 µg/mL,> 128 µg/mL,8 µg/mL,0.5 to 1 µg/mL,32 to 64 µg/mL,64 µg/mL,–,–
"COc1cc2c(cc1OCCCC(=O)Nc1cc(C(=O)Nc3ccc4oc(C(=O)N(C)C)cc4c3)n(C)c1)N=C[C@@H]1CCCN1C2=O [PP-A159, (S)—N-(2-(dimethylcarbamoyl)benzofuran-5-yl)-4-(4-((7-methoxy-5-oxo-2,3,5,11a-tetrahydro-1H-benzo[e]pyrrolo[1,2-a][1,4]-diazepin-8-yl)oxy)butanamido)-1-methyl-1H-pyrrole-2-carboxamide]",–,–,< 0.125 µg/mL,0.5 µg/mL,< 0.125 µg/mL,< 0.125 µg/mL,< 0.125 µg/mL,< 0.125 µg/mL,4 µg/mL,128 µg/mL,4 µg/mL,0.5 µg/mL,16 µg/mL,32 to 64 µg/mL,> 20 µM,18.5 µM
"CCOC(=O)c1nc(NC(=O)c2cc3cc(NC(=O)c4cc(NC(=O)CCCOc5cc6c(cc5OC)C(=O)N5CCC[C@H]5C=N6)cn4C)ccc3s2)cn1C [PP-B14, reference compound]",–,–,< 0.125 µg/mL,< 0.125 µg/mL,0.5 µg/mL,< 0.125 µg/mL,< 0.125 µg/mL,1 µg/mL,64 µg/mL,> 128 µg/mL,64 µg/mL,128 µg/mL,128 µg/mL,128 µg/mL,–,–
"COc1cc2c(cc1OCCCC(=O)Nc1cc(C(=O)Nc3ccc4sc(C(=O)N5CCSCC5)cc4c3)n(C)c1)N=C[C@@H]1CCCN1C2=O [PP-B15, (S)-4-(4-((7-methoxy-5-oxo-2,3,5,11a-tetrahydro-1H-benzo-[e]pyrrolo[1,2-a][1,4]diazepin-8-yl)oxy)butanamido)-1-methyl-N-(2-(thiomorpholine-4-carbonyl)benzo[b]thiophen-5-yl)-1H-pyrrole-2-carboxamide]",–,–,< 0.125 µg/mL,< 0.125 µg/mL,< 0.125 µg/mL,< 0.125 µg/mL,< 0.125 µg/mL,< 0.125 µg/mL,2 µg/mL,64 µg/mL,2 µg/mL,> 128 µg/mL,2 µg/mL,32 µg/mL,> 20 µM,> 20 µM
"COc1cc2c(cc1OCCCC(=O)Nc1cc(C(=O)Nc3ccc4sc(C(=O)N5CCOCC5)cc4c3)n(C)c1)N=C[C@@H]1CCCN1C2=O [PP-B16, (S)-4-(4-((7-methoxy-5-oxo-2,3,5,11a-tetrahydro-1H-benzo[e]pyrrolo[1,2-a][1,4]diazepin-8-yl)oxy)butanamido)-1-methyl-N-(2-(morpholine-4-carbonyl)benzo[b]thiophen-5-yl)-1H-pyrrole-2-carboxamide]",–,–,< 0.125 µg/mL,< 0.125 µg/mL,< 0.125 µg/mL,< 0.125 µg/mL,< 0.125 µg/mL,0.5 µg/mL,8 µg/mL,64 µg/mL,8 µg/mL,64 µg/mL,8 µg/mL,32 µg/mL,> 20 µM,> 20 µM
"COC(=O)c1cc(NC(=O)c2cc3cc(NC(=O)c4cc(NC(=O)CCCOc5cc6c(cc5OC)C(=O)N5CCC[C@H]5C=N6)cn4C)ccc3s2)cn1C [PP-B17, reference compound]",–,–,< 0.125 µg/mL,< 0.125 µg/mL,< 0.125 µg/mL,< 0.125 µg/mL,< 0.125 µg/mL,0.25 µg/mL,8 µg/mL,128 µg/mL,32 µg/mL,128 µg/mL,128 µg/mL,64 µg/mL,–,–
"COc1cc2c(cc1OCCCC(=O)Nc1cc(C(=O)Nc3ccc4sc(C(=O)N5CCCCC5)cc4c3)n(C)c1)N=C[C@@H]1CCCN1C2=O [PP-B22, (S)-4-(4-((7-methoxy-5-oxo-2,3,5,11a-tetrahydro-1H-benzo-[e]pyrrolo[1,2-a][1,4]diazepin-8-yl)oxy)butanamido)-1-methyl-N-(2-(piperidine-1-carbonyl)benzo[b]thiophen-5-yl)-1H-pyrrole-2-carboxamide]",–,–,< 0.125 µg/mL,< 0.125 µg/mL,0.5 µg/mL,< 0.125 µg/mL,0.25 µg/mL,1 µg/mL,8 µg/mL,128 µg/mL,8 µg/mL,128 µg/mL,128 µg/mL,64 µg/mL,> 20 µM,> 20 µM
"COc1cc2c(cc1OCCCC(=O)Nc1cc(C(=O)Nc3ccc4oc(C(=O)N5CCCCC5)cc4c3)n(C)c1)N=C[C@@H]1CCCN1C2=O [PP-B26, (S)-4-(4-((7-methoxy-5-oxo-2,3,5,11a-tetrahydro-1H-benzo-[e]pyrrolo[1,2-a][1,4]diazepin-8-yl)oxy)butanamido)-1-methyl-N-(2-(piperidine-1-carbonyl)benzofuran-5-yl)-1H-pyrrole-2-carboxamide]",–,–,< 0.125 µg/mL,< 0.125 µg/mL,0.25 µg/mL,< 0.125 µg/mL,0.25 µg/mL,0.5 µg/mL,2 µg/mL,128 µg/mL,2 µg/mL,8 µg/mL,64 µg/mL,32 µg/mL,> 20 µM,> 20 µM
